According to patent US20040077028A1, “Assay for thrombocytopenia associated with administration of platelet GPIIb-IIIa receptor antagonists” (priority 2002, published 2004):
Positions of bridges follow the written chain, without caps; N, C: chain ends. Non-standard residues stand in square brackets, D forms with d. Residues, ends and D or L forms follow the SMILES beside them. hArg = N=C(N)NCCCC[C@H](N)C(=O)O; Mpa = O=C(O)CCS

Legend:
[1] = tested on: platelets (platelet surface P-selectin expression); experiment: Platelet surface P-selectin expression by flow cytometry with GPIIb-specific antibody 5B12; format: cell-based; conditions: 5B12 (GPIIb-specific) instead of Y2/51; sub-maximal agonist; FIG. 2
Description: After a subject's blood sample has been incubated with a GPIIb-IIIa antagonist as described above, it is diluted (e.g., between 1:10 and 1:15) in autologous platelet-poor plasma (PPP). Platelet activation is assayed. Briefly, an aliquot (e.g., 20 μl) of dilute whole blood (or PRP)-GPIIb-IIIa receptor antagonist mix is incubated for 15-30 minutes at an appropriate temperature (for example, between about 22° C. and 37° C.) with sub-maximal concentration of a platelet agonist (e.g., in 10 μl). Examples of sub-maximal concentrations of platelet agonist are 0.5 μM ADP, 5.0 μM thrombin receptor activating peptide (TRAP), or 1.5 μM iso-TRAP. ADP is not generally used in the assay when the subject is receiving ADP receptor antagonist therapy. To identify platelets and to detect platelet activation, detection reagents are added.
The samples are generally analyzed using flow cytometry. Platelets are identified by light scatter characteristics and labeling of platelets using platelet-specific antibodies (e.g., antibodies that recognize CD41, CD61, CD42a, or CD42b). The binding of antibodies directed against indicators of platelet activation (e.g., anti-P-selectin, CD62P) is assayed using flow cytometry. […] The mean fluorescence intensity and the percent positive (above background) measurements are recorded.
In a second set of experiments, the monoclonal antibody 5B12 (DAKO) which is GPIIb-specific was used instead of Y2/51.

[2] = tested on: platelets (platelet P-selectin expression); conditions: platelet-rich plasma; 1 μg/ml eptifibatide; 0.5 μM ADP; absence of Mab IV.3; FIG. 3
Description: In these experiments, platelet-rich plasma was pre-incubated with FcγRII receptor blocking monoclonal antibody (Mab IV.3, 10 μg/ml). […] The mean fluorescence intensity of platelet P-selectin expression in the presence of 0.5 μM ADP was measured in the presence or absence of unconjugated Y2/51 and in the presence or absence of GPIIb-IIIa receptor antagonist, and with or without an FcγRII receptor blocking monoclonal antibody (Mab IV.3).

[3] = tested on: platelets (leukocyte-platelet aggregates) in citrate anticoagulated whole blood; experiment: Neutrophil-platelet (leukocyte-platelet) aggregates by flow cytometry in whole blood with Y2/51; format: cell-based; conditions: abciximab 6.5 μg/ml, tirofiban 50 ng/ml, FITC conjugated Y2/51, FIG. 1
Excerpt: In some embodiments, platelet activation is detected by assaying leukocyte-platelet aggregation. In such protocols, peripheral blood is drawn from a subject into a suitable anticoagulant, for example 3.2% sodium citrate anticoagulant or PPACK. […] ADP is not generally used in the assay when the subject is receiving ADP receptor antagonist therapy. […] The fluorescent conjugates of the reagents are labeled to be distinguishable from each other (e.g., fluorescein and phycoerythrin) so that both can be detected by flow cytometry. […] Samples are generally analyzed by flow cytometry. […] Leukocyte-platelet aggregates are identified using fluorescence histograms displaying fluorescence (above background) of platelet specific markers (e.g., CD41, CD61, CD42a or CD42b) from the gated monocyte, neutrophil or lymphocyte populations. Both the mean fluorescence intensity and the percent positive (above background) measurements are recorded. The relative amount of fluorescence (or percent positive above background) in the subject's sample is compared to a reference. An increase in the amount of fluorescence (or percent positive above background) in the subject's sample compared to the reference indicates an increased amount of platelet activation in the subject's sample. […]

[4] = cited from earlier work
[5] = within the patient population that develops an HACA response

| Molecule | augmentation of agonist-induced platelet surface P-selectin expression in the presence of the GPIIb-IIIa antagonist with 5B12 [1] | augmentation by Y2/51 of ADP-mediated platelet activation (P-selectin) in the presence of the antagonist [2] | augmentation by Y2/51 of agonist-induced leukocyte-platelet aggregation (neutrophil-platelet aggregates) in the presence of the GPIIb-IIIa antagonist [3] | incidence of thrombocytopenia (platelet count of <100×10^9/L) ([4]; patients receiving the drug for a second time (re-administration)) | incidence of profound thrombocytopenia (platelet count of <20×10^9/L) [4, 5] | incidence of thrombocytopenia (count of <100×10^9/L) [4, 5] |
| --- | --- | --- | --- | --- | --- | --- |
| N=C(N)NCCCC[C@@H]1NC(=O)CCSSC[C@@H](C(N)=O)NC(=O)[C@@H]2CCCN2C(=O)[C@H](Cc2c[nH]c3ccccc23)NC(=O)[C@H](CC(=O)O)NC(=O)CNC1=O [eptifibatide] ([Mpa][hArg]GDWPC-NH2; disulfide 1-7) | not augmented | augments |  |  |  |  |
| CCCCS(=O)(=O)N[C@@H](Cc1ccc(OCCCCC2CCNCC2)cc1)C(=O)O [tirofiban] | not augmented |  | augmented |  |  |  |
| abciximab | observed |  | did not augment | 3.6% | less than 1% | 3.5% |
